# Assay results from patent US8815857B2 (Boehringer Ingelheim International GmbH, priority 2011, dated 2014).
# What was measured:
# [1] = Assessment of solubility: HT solubility in pION buffer, UV spectrophotometry; details: kinetic from dmso stock
# [2] = biological target: T1, human soluble guanylate cyclase alpha 1 and beta 1 subunits (sGC) stably expressed in Chinese hamster ovary cells (Homo sapiens, UniProt Q02108+Q02153); test: sGC cellular activator assay: cGMP in CHO cells expressing human sGC, preincubated with ODQ; assay type: cell-based; details: 40 microM ODQ preincubation, 30 min at room temperature, presence or absence of 50% human serum not given, read-out: EC50 nM, Activity of Compounds in Cellular Assay
# T1 construct: expressed in transfected cells; host or cells: Chinese hamster ovary cells, stably transfected
# T1 sequence (Q02108 1-690 partner): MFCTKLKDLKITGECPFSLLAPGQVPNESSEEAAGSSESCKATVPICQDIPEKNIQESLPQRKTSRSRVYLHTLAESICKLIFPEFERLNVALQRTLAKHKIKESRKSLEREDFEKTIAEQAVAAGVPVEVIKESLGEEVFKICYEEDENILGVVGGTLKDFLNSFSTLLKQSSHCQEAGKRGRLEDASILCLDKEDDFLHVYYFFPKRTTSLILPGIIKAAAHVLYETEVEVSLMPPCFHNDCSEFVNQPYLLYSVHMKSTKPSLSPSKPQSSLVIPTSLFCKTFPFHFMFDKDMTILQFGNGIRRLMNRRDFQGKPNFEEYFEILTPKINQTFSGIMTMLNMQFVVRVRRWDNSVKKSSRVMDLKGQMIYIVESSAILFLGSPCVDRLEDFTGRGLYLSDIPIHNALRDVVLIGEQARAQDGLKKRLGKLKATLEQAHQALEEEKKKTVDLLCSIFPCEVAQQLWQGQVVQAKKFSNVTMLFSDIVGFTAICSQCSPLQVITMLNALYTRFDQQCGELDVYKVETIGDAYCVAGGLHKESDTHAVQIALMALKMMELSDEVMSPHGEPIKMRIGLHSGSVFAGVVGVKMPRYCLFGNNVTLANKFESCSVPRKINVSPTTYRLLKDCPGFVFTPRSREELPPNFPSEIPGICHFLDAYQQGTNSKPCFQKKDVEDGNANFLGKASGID
# T1 sequence (Q02153 1-619): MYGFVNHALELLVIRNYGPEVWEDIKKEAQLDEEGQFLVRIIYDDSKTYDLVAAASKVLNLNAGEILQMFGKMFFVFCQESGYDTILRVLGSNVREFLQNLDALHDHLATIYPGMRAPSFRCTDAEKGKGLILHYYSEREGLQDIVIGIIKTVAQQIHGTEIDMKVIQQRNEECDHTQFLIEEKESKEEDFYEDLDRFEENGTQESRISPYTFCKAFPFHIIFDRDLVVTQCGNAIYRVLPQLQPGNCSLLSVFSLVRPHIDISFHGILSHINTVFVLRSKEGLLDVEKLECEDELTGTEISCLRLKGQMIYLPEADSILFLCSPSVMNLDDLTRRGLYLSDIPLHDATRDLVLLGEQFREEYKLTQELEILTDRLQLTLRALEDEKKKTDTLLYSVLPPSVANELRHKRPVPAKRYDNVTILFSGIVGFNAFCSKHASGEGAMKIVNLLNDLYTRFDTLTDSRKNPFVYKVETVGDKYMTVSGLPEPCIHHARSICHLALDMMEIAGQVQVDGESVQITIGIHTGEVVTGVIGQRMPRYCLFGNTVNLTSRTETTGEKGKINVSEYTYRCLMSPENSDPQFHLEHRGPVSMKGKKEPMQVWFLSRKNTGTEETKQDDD
# Method in brief: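 EC50 values derive from HTRF cGMP measurement after test compounds act for thirty minutes at room temperature, with or without 50% human serum. Before dosing, the sGC-transfected CHO cells spend one hour with the inhibitor ODQ (40 microM) in IBMX- and 0.1% BSA-containing buffer.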
# [3] = pH 6.8, aqueous buffer, Solubility (pH 6.8), pH 6.8
# [4] = pION system solution buffer, pH 4.5, pH 4.5, aqueous buffer, Solubility (pH 4.5), pH 4.5 buffer, 16-19 h incubation, 1.0% DMSO
# [5] = pION system solution buffer, pH 7.4, pH 7.4, aqueous buffer, Solubility (pH 7.4), pH 7.4 buffer, 16-19 h incubation, 1.0% DMSO
SMILES,"solubility [1, 3]","solubility [1, 4]",EC50 [2],"solubility [1, 5]"
Cc1ccc(OCc2ccc(CN3CCN(C(=O)C4CC4)CC3)cc2C#N)c(-c2csc(N3C[C@H]4CC[C@@H](C3)[C@H]4C(=O)O)n2)c1 [Compound 265],1.9 µg/mL,0.79 µg/mL,42 nM,–
"Cc1ccc(OCc2ccc(C(=O)N3CCOCC3)cc2C#N)c(-c2csc(N3C[C@H]4CC[C@@H](C3)[C@H]4C(=O)O)n2)c1 [Compound 266, 3-(4-{2-[2-cyano-4-(morpholine-4-carbonyl)-benzyloxy]-5-methyl-phenyl}-thiazole-2-yl)-3-aza-bicyclo[3.2.1]octane-8(syn)-carboxylic acid]",70 µg/mL,0.48 µg/mL,42 nM,–
Cc1ccc(OCc2ccc(CN3CCS(=O)(=O)CC3)cc2C#N)c(-c2csc(N3C[C@H]4CC[C@@H](C3)[C@H]4C(=O)O)n2)c1 [Compound 267],13 µg/mL,< 0.1 µg/mL,44 nM,–
Cc1ccc(OCc2ccc(C(=O)N3CCOCC3)cc2C)c(-c2csc(N3C[C@H]4CC[C@@H](C3)[C@H]4C(=O)O)n2)c1 [Compound 268],70 µg/mL,< 0.1 µg/mL,7.3 nM,38 µg/mL
Cc1ccc(OCc2ccc(CN3CCN(C)C(=O)C3)cc2C)c(-c2csc(N3C[C@H]4CC[C@@H](C3)[C@@]4(C)C(=O)O)n2)c1 [Compound 269],16 µg/mL,0.28 µg/mL,9.5 nM,–
"Cc1ccc(OCc2ccc(CN3CCOCC3)cc2C)c(-c2csc(N3C[C@H]4CC[C@@H](C3)[C@@]4(C)C(=O)O)n2)c1 [Compound 270, 8-methyl-3-{4-[5-methyl-2-(2-methyl-4-morpholin-4-ylmethyl-benzyloxy)-phenyl]-thiazol-2-yl}-3-aza-bicyclo[3.2.1]octane-8(syn)-carboxylic acid]",–,17 µg/mL,96 nM,> 56 µg/mL
Cc1ccc(OCc2ccc(C(C)N3CCOCC3)cc2C)c(-c2csc(N3CC4CCC(C3)C4C(=O)O)n2)c1 (centres unmarked) [Compound 276],1.9 µg/mL,32 µg/mL,45 nM,41 µg/mL
COc1cc(CN2CCOCC2)ccc1COc1ccc(C)cc1-c1csc(N2CCC(C(=O)O)CC2)n1 [Compound 278],–,> 53 µg/mL,51 nM,30 µg/mL
Cc1ccc(OCc2ccc(CN3CCOCC3)cc2OC(F)(F)F)c(-c2csc(N3C[C@H]4CC[C@@H](C3)[C@H]4C(=O)O)n2)c1 [Compound 280],0.9 µg/mL,0.72 µg/mL,16 nM,–
Cc1ccc(OCc2ccc(C(=O)N3CCOCC3)c(C)c2)c(-c2csc(N3C[C@H]4CC[C@@H](C3)[C@H]4C(=O)O)n2)c1 [Compound 281],4.6 µg/mL,< 0.1 µg/mL,28 nM,–
Cc1ccc(OCc2c(C)cc(C(=O)N3CCCCC3)cc2C)c(-c2csc(N3C[C@H]4CC[C@@H](C3)[C@H]4C(=O)O)n2)c1 [Compound 282],0.89 µg/mL,< 0.1 µg/mL,39 nM,–
Cc1ccc(OCc2ccc(C(=O)N3CCCCC3)c(C)c2)c(-c2csc(N3C[C@H]4CC[C@@H](C3)[C@H]4C(=O)O)n2)c1 [Compound 283],0.1 µg/mL,< 0.1 µg/mL,60 nM,–
Cc1ccc(OCc2c(C)cc(C(=O)N3CCN(C)C(=O)C3)cc2C)c(-c2csc(N3C[C@H]4CC[C@@H](C3)[C@H]4C(=O)O)n2)c1 [Compound 284],66 µg/mL,0.65 µg/mL,100 nM,–
Cc1ccc(OCc2c(C)cc(C(=O)N3CCOCC3)cc2C)c(-c2csc(N3C[C@H]4CC[C@@H](C3)[C@H]4C(=O)O)n2)c1 [Compound 285],54 µg/mL,< 0.1 µg/mL,120 nM,–
Cc1ccc(OCc2ccc(C(=O)N3CCN(C)C(=O)C3)c(C)c2)c(-c2csc(N3C[C@H]4CC[C@@H](C3)[C@H]4C(=O)O)n2)c1 [Compound 286],83 µg/mL,1 µg/mL,37 nM,–
CCc1cc(C(=O)N2CCCCC2)ccc1COc1ccc(C)cc1-c1csc(N2C[C@H]3CC[C@@H](C2)[C@H]3C(=O)O)n1 [Compound 287],21 µg/mL,< 0.1 µg/mL,6.2 nM,–
CCc1cc(C(=O)N2CCOCC2)ccc1COc1ccc(C)cc1-c1csc(N2C[C@H]3CC[C@@H](C2)[C@H]3C(=O)O)n1 [Compound 288],29 µg/mL,< 0.1 µg/mL,9.7 nM,–
Cc1ccc(OCc2ccc(CN3CCN(C)C(=O)C3)cc2C)c(-c2csc(N3CC4CCC(C3)C4C(=O)O)n2)c1 (centres unmarked) [Compound 289],35 µg/mL,1.5 µg/mL,3.4 nM,–
Cc1ccc(OCc2ccc(CN3CCN(C)C(=O)C3C)cc2C)c(-c2csc(N3CC4CCC(C3)C4C(=O)O)n2)c1 (centres unmarked) [Compound 290],21 µg/mL,0.69 µg/mL,4.3 nM,–
CCN1CCN(Cc2ccc(COc3ccc(C)cc3-c3csc(N4CC5CCC(C4)C5C(=O)O)n3)c(C)c2)CC1=O (centres unmarked) [Compound 291],13 µg/mL,0.18 µg/mL,7.6 nM,–
Cc1ccc(OCc2ccc(CN3CCN(C(C)C)C(=O)C3)cc2C)c(-c2csc(N3CC4CCC(C3)C4C(=O)O)n2)c1 (centres unmarked) [Compound 293],3.4 µg/mL,< 0.1 µg/mL,29 nM,–
Cc1ccc(OCc2ccc(C(=O)N(C)CCC#N)cc2C)c(-c2csc(N3C[C@H]4CC[C@@H](C3)[C@H]4C(=O)O)n2)c1 [Compound 296],10 µg/mL,< 0.1 µg/mL,50 nM,–
Cc1ccc(OCc2ccc(C(=O)N(C)CCO)cc2C)c(-c2csc(N3C[C@H]4CC[C@@H](C3)[C@H]4C(=O)O)n2)c1 [Compound 297],63 µg/mL,1.7 µg/mL,100 nM,–
CCN(CCO)C(=O)c1ccc(COc2ccc(C)cc2-c2csc(N3C[C@H]4CC[C@@H](C3)[C@H]4C(=O)O)n2)c(C)c1 [Compound 298],66 µg/mL,0.32 µg/mL,59 nM,–
Cc1ccc(OCc2ccc(C(=O)N3CCCC3)cc2C)c(-c2csc(N3C[C@H]4CC[C@@H](C3)[C@H]4C(=O)O)n2)c1 [Compound 299],36 µg/mL,0.17 µg/mL,8.4 nM,–
Cc1ccc(OCc2ccc(C(=O)N3CCN(C)CC3)cc2C)c(-c2csc(N3C[C@H]4CC[C@@H](C3)[C@H]4C(=O)O)n2)c1 [Compound 300],60 µg/mL,53 µg/mL,44 nM,–
